In brackets after ≈: the same amount, converted by molar mass. Read-outs that look alike come from different tables or passages of the source.
How the values were obtained:
[1] = system: Mycobacterium tuberculosis (Mtb) H37Rv ATCC 27294; experiment: microbe, parasite or virus in culture; type: cell-based; conditions: Mycobacterium tuberculosis
in vivo [2] = conditions: male, Wistar, rat, po, 100 mg/kg
[3] = system: hypoxia induced non-replicating persistent (NRP) Mtb cells; experiment: Activity against hypoxia induced non-replicating persistent (NRP) Mtb (HBC, Wayne model); type: cell-based, Mycobacterium tuberculosis; conditions: for Mtb H37Rv HBC: Table 5
[4] = system: Mycobacterium tuberculosis (Mtb) H37Rv; experiment: Mtb minimal bactericidal concentration (MBC), plating from MIC plates; type: cell-based
Method: Aliquots from sample wells (MIC and higher) from the MIC plates were diluted 1:10 and plated on 7H10 agar plates. Plates were incubated at 37° C. for 3-4 weeks, CFU was enumerated.

[5] = system: A549 human lung carcinoma cells; type: cell-based
Method: The in vitro cytotoxicity of compounds were measured against A549 human lung carcinoma cells as describedin Eakin et. al (2012). Briefly, A549 cells (ATCC) were grown in RPMI medium (GIBCO-BRL) containing 10% heat-inactivated fetal bovine serum (GIBCO-BRL) and 1 mM L-glutamine (GIBCO-BRL) at a density of 1,000 cells/well. After incubation of the cells with compound in a CO2 atmosphere at 37° C. for 72 hours, cell viability was determined following addition of […] of resazurin solution (Sigma), by measuring fluorescence (excitation at 535 nm, emission at 590 nm) using a fluorimeter.

[6] = system: CYP1A2, CYP2C9, CYP2C19, CYP2D6, CYP3A4; conditions: human
in vitro [7] = type: in vitro ADME; conditions: plasma
Method: Protein binding is measured using the equilibrium dialysis technique. Compound is added to 10% plasma giving a concentration of 20 μM and dialysed with isotonic buffer for 18 hours at 37° C. The plasma and buffer solutions are analysed using generic LCUVMS and the first apparent binding constant for the compound derived. The binding constant is then used to determine the % free in 100% plasma.

[8] = Method: Viability of cryopreserved hepatocytes was determined using trypan blue and the cell conc. was adjusted to 10^6 cells per mL with buffer (KHB buffer). 1 μM compound (in Acetonitrile; 0.01% DMSO) was incubated with 500 μL of hepatocyte cells (1 million cells per mL) in a NUNC plate. […] Supernatants were analyzed using LC-MS/MS for substrate depletion.
[9] = system: panel of human targets and cardiac channels
[10] = type: in vitro ADME
Method: 1 μM compound was incubated with 1 mg/mL of microsomes (Pooled HLM/MLM with 20 mg/ml protein cone.) at 37° C. in 166 μL of buffer (100 mM phosphate buffer, pH-7.4) containing 2 mM NADPH solution. […] The quench plate was centrifuged at 4000 rpm for 15 min. 30 μL of supernatant was diluted to 300 μL with 50% acetonitrile in water and substrate depletion was analyzed using LC-MS/MS.

[11] = pH 7.4
Method: Octanol-water partition coefficient (Log D) based on the shake-flask principle has been measured as follows. The aqueous solution used was 10 mM sodium phosphate buffer pH 7.4. 20 μL of 10 mM compound dissolved in DMSO was taken in glass vial plate. DMSO was removed using GeneVac. 435 μL of octanol was added using Tomtec, stirred for 5 min to dissolve. Further mixing was done by inversion for 5 h at 25° C., subsequently centrifuged for 30 min at 3000 RPM. LC/UV/APPI/MS quantitation of both aqueous and octanol layers was carried out. Log D value was determined according to the following equation.

in vitro [12] = type: in vitro ADME; conditions: pH 7.4; mouse microsomes; read-out: Mo micrsomal Clint
Method: 1 μM compound was incubated with 1 mg/mL of microsomes (Pooled HLM/MLM with 20 mg/ml protein cone.) at 37° C. in 166 μL of buffer (100 mM phosphate buffer, pH-7.4) containing 2 mM NADPH solution. 20 μL of incubation mix was quenched with 4 volumes chilled acetonitrile at different time points i.e. 0, 2, 5, 10, 20 and 30 min in a fresh 96 well plate. The quench plate was centrifuged at 4000 rpm for 15 min. 30 μL of supernatant was diluted to 300 μL with 50% acetonitrile in water and substrate depletion was analyzed using LC-MS/MS.

physchem = type: physicochemical; conditions: 25 °C, pH 7.4, aqueous buffer, thermodynamic from solid
Method: Solubility of the compounds in 0.1M phosphate buffer, pH 7.4 was determined as described, Glyburide was used as QC standard in the assay. Briefly, compounds were diluted in ACN/water (40:60) to desired concentration, samples were dried using Genevac for 4 hrs and subsequently 800 μl of buffer was added. Compound containing plates were stirred for 24 hrs at 25° C. on Eppendorf Thermomix R at 750 rpm. Finally, compound concentration was estimated using UV and MS analysis.

in vivo [13] = conditions: po, 30 mg/kg
Method: PK of azaindoles compounds was performed in mice (healthy and infected) and rats. Mice were pretreated with 100 mg/kg ABT two hours prior to the compound administration. PK data from healthy mice was used to design the dosing regimen for the efficacy study while, information from infected mice was used for the PK-PD analysis.
All oral administration was performed as suspensions in 0.5% HPMC, and 0.1% Tween 80. […] All blood samples were collected via sapheneous vein into Microvette CB300® (Starstedt, Germany) tubes coated with Lithium-Heparin, and plasma was prepared from the collected blood by centrifugation.
One mg/mL stock solution of each compound was prepared in Dimethylsulfoxide (DMSO) and diluted two-fold with acetonitrile. A sixteen point calibration curve was utilized for each analyte, and the standard curves ranged from 0.001 to 40 μg/mL. Plasma/BAL samples were precipitated by adding chilled acetonitrile (1:10 v/v) containing carbamazepine as internal standard (250 ng/mL). Samples were vortexed, and centrifuged at 4000 rpm for 30 min at 10° C. The resulting supernatant was mixed with mobile phase (50% acetonitrile in water with 0.1% formic acid). […] of sample was injected on to a liquid chromatographic system (Waters-ACQUTY UPLC) coupled to triple quadrupole mass spectrometer (Waters-ACQUTY-TQD; MS/MS). Samples were acquired in positive ion mode and detected by multiple reaction monitoring (MRM). Concentrations of the analyte were determined from a standard curve obtained by plotting known concentrations of the analyte against peak area ratios (analyte/internal standard peak response).
PK analysis of the plasma concentration-time relationships were performed with WinNonlin Phoenix Software (version 6.2; Pharsight, USA). […] The maximum concentration of drug in plasma (Cmax), time to Cmax (Tmax), elimination half-life (t1/2), and AUC from time zero to infinity (AUC0-∞) were estimated. […] Minimum of three sample points in the terminal slope were used to estimate to calculate half-life.

hERG = hERG (Homo sapiens, UniProt Q12809)
Method: Compounds were tested on voltage-gated ion channels using the medium-throughput electrophysiology IonWorks™ device. […] For carrying out the experiment, a boat in the “Cells” position of the IonWorks™ instrument was loaded with the cell suspension, and a 96-well PBS destination plate was placed in the “Plate 1” position. A 384-well PatchPlate™ was placed in the IonWorks™ plenum and held in position using the plenum clamp. From this point the experiment progress is automated and ultimately reports a non-cumulative concentration-effect curve for test compound.

in vivo [14] = conditions: BALB/c, mouse, po
in vivo [15] = conditions: BALB/c, mouse, po, 50 mg/kg
[16] = Table 5, read-out: Mtb H37Rv MBC
[17] = Table 5, read-out: Mtb H37Rv MIC

hERG, sequence (Q12809 whole entry): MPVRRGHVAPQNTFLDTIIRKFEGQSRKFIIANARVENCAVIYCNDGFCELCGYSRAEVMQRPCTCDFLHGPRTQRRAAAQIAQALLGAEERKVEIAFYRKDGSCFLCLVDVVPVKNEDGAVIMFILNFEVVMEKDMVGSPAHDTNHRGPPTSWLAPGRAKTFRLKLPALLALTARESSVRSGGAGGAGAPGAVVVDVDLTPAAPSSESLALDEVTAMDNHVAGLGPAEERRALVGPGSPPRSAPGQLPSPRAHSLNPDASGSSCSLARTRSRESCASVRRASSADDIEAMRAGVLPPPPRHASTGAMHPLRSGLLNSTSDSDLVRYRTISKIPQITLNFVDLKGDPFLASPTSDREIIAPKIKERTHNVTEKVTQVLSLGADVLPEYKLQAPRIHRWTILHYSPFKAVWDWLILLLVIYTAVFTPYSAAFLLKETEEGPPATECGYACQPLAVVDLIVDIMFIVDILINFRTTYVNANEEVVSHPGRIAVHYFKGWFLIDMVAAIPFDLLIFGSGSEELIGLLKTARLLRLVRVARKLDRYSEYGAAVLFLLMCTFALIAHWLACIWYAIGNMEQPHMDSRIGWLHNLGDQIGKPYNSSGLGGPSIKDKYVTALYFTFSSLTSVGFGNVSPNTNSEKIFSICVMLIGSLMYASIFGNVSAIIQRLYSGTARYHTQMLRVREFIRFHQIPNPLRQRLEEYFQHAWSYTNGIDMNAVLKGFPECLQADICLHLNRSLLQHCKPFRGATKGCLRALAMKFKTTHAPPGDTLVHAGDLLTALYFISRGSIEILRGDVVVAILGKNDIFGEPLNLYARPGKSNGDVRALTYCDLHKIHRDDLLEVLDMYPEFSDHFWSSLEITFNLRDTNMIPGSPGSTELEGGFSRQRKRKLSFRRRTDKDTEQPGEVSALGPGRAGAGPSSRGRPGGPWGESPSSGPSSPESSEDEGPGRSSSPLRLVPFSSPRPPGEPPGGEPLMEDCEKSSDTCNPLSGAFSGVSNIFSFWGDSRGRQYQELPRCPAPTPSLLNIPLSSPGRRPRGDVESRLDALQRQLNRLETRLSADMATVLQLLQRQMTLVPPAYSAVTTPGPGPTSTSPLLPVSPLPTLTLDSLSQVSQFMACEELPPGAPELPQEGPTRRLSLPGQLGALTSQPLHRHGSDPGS

COc1ncnc(Cn2cc(C(=O)NCC(F)F)c3ncc(C)cc32)c1C [Compound 30, N-(2,2-difluoroethyl)-1-((6-methoxy-5-methylpyrimidin-4-yl)methyl)-6-methyl-1H-pyrrolo[3,2-b]pyridine-3-carboxamide]
MIC ([1]; Table 1, read-out: Mtb MIC): < 0.391 µM
AUC(0-inf) (in vivo [2]): 23.3 ± 11.7 µM·h
Cmax (in vivo [2]): 3.4 ± 2 µM
Tmax (in vivo [2]): 3.3 ± 2.3 h
half-life (in vivo [2]): 198 ± 66 min

Cc1ccc(Cn2cc(C(=O)NCCF)c3ncccc32)c(C)c1 [Compound 31, 1-(2,4-dimethylbenzyl)-N-(2-fluoroethyl)-1H-pyrrolo[3,2-b]pyridine-3-carboxamide]
Mtb H37Rv HBC [3]: 12.5 to 25 µM
MBC [4, 16]: 3.12 to 6.25 µM (≈ 1.02 to 2.03 µg/mL)
MIC ([1]; Table 1, read-out: Mtb MIC): 1.56 µM (≈ 0.508 µg/mL)
MIC [1, 17]: 1.56 to 3.12 µM (≈ 0.508 to 1.02 µg/mL)
MMIC (A549) ([5]; human, 72 h): >82 µM

COc1ncnc(Cn2cc(C(=O)NCCF)c3ncc(C)cc32)c1C [Compound 8, N-(2-fluoroethyl)-1-((6-methoxy-5-methylpyrimidin-4-yl)methyl)-6-methyl-1H-pyrrolo[3,2-b]pyridine-3-carboxamide]
CYP inhibition [6]: >50 µM
Mtb HBC ([3]; hypoxic conditions, Wayne model, Table 4): 100 µM
fraction unbound at 18 h, 20 μM (in vitro [7]; human): 0.05 to 0.22
Human PPB (% free) (in vitro [7]): 5 % free
MBC ([4]; Table 4, read-out: Mtb MBC): < 0.39 µM
MIC ([1]; Table 1, read-out: Mtb MIC): < 0.53 µM
MIC ([1]; Table 4, read-out: Mtb MIC): < 0.39 µM
Human CLpred hepatocytes (% LBF) ([8]; 1 μM): 4.3 % LBF
Rat CLpred hepatocytes (% LBF) ([8]; 1 μM): 14.9 % LBF
Secondary pharmacology hits IC50 [9]: No significant hits
in vitro safety profiling [9]: no major safety liabilities
Human CLpred microsomes (% LBF) ([10]; pH 7.4): 10.1 % LBF
logD [11]: 2.6
AUC(0-inf) (in vivo [2]): 98.4 ± 31.9 µM·h
Cmax (in vivo [2]): 11.9 ± 3 µM
Tmax (in vivo [2]): 1.5 ± 0.6 h
half-life (in vivo [2]): 432 ± 78 min
microsomal CLint (in vitro [12]): 108 µL/min/mg
MMIC (A549) ([5]; human, 72 h): >100 µM
solubility (physchem): 4 µM (≈ 1.43 µg/mL)
AUC(0-inf) (in vivo [13]; BALB/c, mouse): 64.2 µM·h
Cmax (in vivo [13]; BALB/c, mouse): 13.4 µM
Tmax (in vivo [13]; BALB/c, mouse): 2 h
half-life (in vivo [13]; BALB/c, mouse): 249 min
AUC(0-inf) (in vivo [13]; Wistar, rat, in vivo): 29.3 µM·h
Cmax (in vivo [13]; Wistar, rat, in vivo): 3.69 µM
Tmax (in vivo [13]; Wistar, rat, in vivo): 4.5 h
half-life (in vivo [13]; Wistar, rat, in vivo): 215 min
hERG (hERG): >33 µM

COc1cccc(F)c1Cn1cc(C(=O)NCC2CC2)c2ncccc21 [Compound 32, N-(cyclopropylmethyl)-1-(2-fluoro-6-methoxybenzyl)-1H-pyrrolo[3,2-b]pyridine-3-carboxamide]
Mtb H37Rv HBC [3]: >200 µM
MBC [4, 16]: 1.56 to 6.25 µM (≈ 0.551 to 2.21 µg/mL)
MIC ([1]; Table 1, read-out: Mtb MIC): 1.56 µM (≈ 0.551 µg/mL)
MIC [1, 17]: 1.56 to 3.12 µM (≈ 0.551 to 1.1 µg/mL)
MMIC (A549) ([5]; Table 5): >100 µM

Cc1cnc2c(C(=O)NCCO)cn(Cc3ncnc(N(C)C)c3C)c2c1 [Compound 34, 1-((6-(dimethylamino)-5-methylpyrimidin-4-yl)methyl)-N-(2-hydroxyethyl)-6-methyl-1H-pyrrolo[3,2-b]pyridine-3-carboxamide]
MIC ([1]; Table 1, read-out: Mtb MIC): < 0.39 µM
AUC(0-inf) (in vivo [2]): 166 ± 43.9 µM·h
Cmax (in vivo [2]): 31.5 ± 3 µM
Tmax (in vivo [2]): 2 h
half-life (in vivo [2]): 276 min

COc1ncnc(Cn2cc(C(=O)NCC3CC3)c3ncccc32)c1C [Compound 4, N-(cyclopropylmethyl)-1-((6-methoxy-5-methylpyrimidin-4-yl)methyl)-1H-pyrrolo[3,2-b]pyridine-3-carboxamide]
Human CLpred hepatocytes (% LBF) [8]: 4.3 % LBF
Rat CLpred hepatocytes (% LBF) [8]: 13 % LBF
predicted clearance ([10]; human, rat): 4-18 % of liver blood flow (% LBF)
AUC (in vivo [14]): 200 to 700 µM·h
AUC(0-inf) (in vivo [14]; 30 mg/kg): 227 ± 28.9 µM·h
Cmax (in vivo [14]; 30 mg/kg): 17.4 ± 1.76 µM
Tmax (in vivo [14]; 30 mg/kg): 5.67 ± 2.31 h
half-life (in vivo [14]; 30 mg/kg): 231 ± 32.4 min
microsomal CLint (in vitro [12]): 180 µL/min/mg
AUC(0-inf) (in vivo [15]): 200 ± 101 µM·h
Cmax (in vivo [15]): 38.9 ± 15.2 µM
Tmax (in vivo [15]): 4.5 ± 2.78 h
half-life (in vivo [15]): 134 ± 21 min
AUC(0-inf) (in vivo [13]; Wistar, rat, in vivo): 22.9 µM·h
Cmax (in vivo [13]; Wistar, rat, in vivo): 2.35 µM
Tmax (in vivo [13]; Wistar, rat, in vivo): 3 h
half-life (in vivo [13]; Wistar, rat, in vivo): 218 min
hERG (hERG): >33 µM

NNC(=O)c1ccncc1 [Isoniazid]
reduction in the bacterial CFU of NRP Mtb [3]: no reduction

Cc1cnc2c(C(=O)NCCO)cn(Cc3nccc(OCC(F)(F)F)c3C)c2c1 [Compound 27, N-(2-hydroxyethyl)-6-methyl-1-((3-methyl-4-(2,2,2-trifluoroethoxy)pyridin-2-yl)methyl)-1H-pyrrolo[3,2-b]pyridine-3-carboxamide]
MIC ([1]; Table 1, read-out: Mtb MIC): 3.12 µM (≈ 1.32 µg/mL)

COc1ncc(F)cc1Cn1cc(C(=O)NC[C@H](C)F)c2ncc(C)cc21 [Compound 24, (S)-1-((5-fluoro-2-methoxypyridin-3-yl)methyl)-N-(2-fluoropropyl)-6-methyl-1H-pyrrolo[3,2-b]pyridine-3-carboxamide]
MIC ([1]; Table 1, read-out: Mtb MIC): < 0.391 µM

COc1ncc(C(F)(F)F)cc1Cn1cc(C(=O)NCCF)c2ncccc21 [Compound 13, N-(2-fluoroethyl)-1-((2-methoxy-5-(trifluoromethyl)pyridin-3-yl)methyl)-1H-pyrrolo[3,2-b]pyridine-3-carboxamide]
MIC ([1]; Table 1, read-out: Mtb MIC): < 0.53 µM
